The results in this text go back to ChEMBL document CHEMBL5137068, “Discovery of Hexahydrofuro[3,2-b]furans as New Kinase-Selective and Orally Bioavailable JAK3 Inhibitors for the Treatment of Leukemia Harboring a JAK3 Activating Mutant” (J Med Chem, 2022).

Data set [1] concerns the target Receptor-type tyrosine-protein kinase FLT3 (Homo sapiens) (UniProt P36888). Kind of data set: Inhibition of human FLT3 at 0.5 uM assessed as competition rate relative to control.
The subject of data set [2] is U-937. Kind of data set: Induction of cell cycle arrest in human U-937 cells assessed as accumulation at G2/M phase at 11 nM measured after 24 hrs by propidium iodide staining based flow cytometric analysis (reference value: 21.41%). In kind it is functional.
A short description of data set [3]: AUC(0 to infinity) in 12 hr fasted SPF Sprague-Dawley rat at 5 mg/kg, iv upon 2 hrs fasting post-administration measured upto 24 hrs. The arrangement: dose 5 mg/kg, time < 24 hrs, route iv. The following applies: in vivo. The format is ADME, organism-based.
Data set [4] concerns the target Cyclin-Y/Cyclin-dependent kinase 16 (Homo sapiens, UniProt Q00536). Briefly: Inhibition of human CDK16/cyclin-Y protein-protein complex. The format is protein-complex assay.
Data set [5] deals with T1, Signal transducer and activator of transcription 5A (Homo sapiens) (UniProt P42229).
T1 sequence (whole entry): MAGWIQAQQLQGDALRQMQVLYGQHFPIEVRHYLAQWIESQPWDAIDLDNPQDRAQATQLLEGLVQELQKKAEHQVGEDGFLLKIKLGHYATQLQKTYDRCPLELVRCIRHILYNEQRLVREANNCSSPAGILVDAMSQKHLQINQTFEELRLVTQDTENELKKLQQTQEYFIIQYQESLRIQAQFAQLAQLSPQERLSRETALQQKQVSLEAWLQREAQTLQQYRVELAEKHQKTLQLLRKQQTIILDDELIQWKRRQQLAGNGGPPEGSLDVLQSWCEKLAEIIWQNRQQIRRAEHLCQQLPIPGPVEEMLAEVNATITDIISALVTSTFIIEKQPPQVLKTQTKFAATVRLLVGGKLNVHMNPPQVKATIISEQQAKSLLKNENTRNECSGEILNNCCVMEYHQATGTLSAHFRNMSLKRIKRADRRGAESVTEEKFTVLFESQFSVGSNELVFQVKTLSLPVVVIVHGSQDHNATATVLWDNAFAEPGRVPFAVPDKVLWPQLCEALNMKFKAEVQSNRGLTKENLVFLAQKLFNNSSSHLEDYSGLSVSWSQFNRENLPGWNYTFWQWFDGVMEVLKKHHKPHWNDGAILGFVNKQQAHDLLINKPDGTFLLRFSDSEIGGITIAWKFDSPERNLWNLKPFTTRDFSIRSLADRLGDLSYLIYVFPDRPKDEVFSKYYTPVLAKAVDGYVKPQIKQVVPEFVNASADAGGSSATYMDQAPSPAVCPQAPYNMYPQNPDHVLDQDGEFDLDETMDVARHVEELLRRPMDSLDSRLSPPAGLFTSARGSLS
Kind of data set: Inhibition of STAT5 activation in human U-937 cells assessed as decrease in P-STAT5 at 100 uM by Western blot analysis. In kind it is cell-based. The settings on record: time 0-24 hrs, TDE = time-dependent effect. Background: A western blot detects proteins with antibodies after separation by electrophoresis.

Data set [6] in a line: Half life in 12 hr fasted SPF Sprague-Dawley rat at 5 mg/kg, iv upon 2 hrs fasting post-administration measured upto 24 hrs. In kind it is ADME, organism-based. The settings on record: in vivo.
Data set [7] has as its target Cytoplasmic tyrosine-protein kinase BMX (Homo sapiens) (UniProt P51813). Briefly: Inhibition of BMX (unknown origin) at 0.5 uM assessed as competition rate relative to control.
Data set [8] addresses T2, Tyrosine-protein kinase JAK3 (Homo sapiens, UniProt P52333).
T2 sequence (P52333 whole entry): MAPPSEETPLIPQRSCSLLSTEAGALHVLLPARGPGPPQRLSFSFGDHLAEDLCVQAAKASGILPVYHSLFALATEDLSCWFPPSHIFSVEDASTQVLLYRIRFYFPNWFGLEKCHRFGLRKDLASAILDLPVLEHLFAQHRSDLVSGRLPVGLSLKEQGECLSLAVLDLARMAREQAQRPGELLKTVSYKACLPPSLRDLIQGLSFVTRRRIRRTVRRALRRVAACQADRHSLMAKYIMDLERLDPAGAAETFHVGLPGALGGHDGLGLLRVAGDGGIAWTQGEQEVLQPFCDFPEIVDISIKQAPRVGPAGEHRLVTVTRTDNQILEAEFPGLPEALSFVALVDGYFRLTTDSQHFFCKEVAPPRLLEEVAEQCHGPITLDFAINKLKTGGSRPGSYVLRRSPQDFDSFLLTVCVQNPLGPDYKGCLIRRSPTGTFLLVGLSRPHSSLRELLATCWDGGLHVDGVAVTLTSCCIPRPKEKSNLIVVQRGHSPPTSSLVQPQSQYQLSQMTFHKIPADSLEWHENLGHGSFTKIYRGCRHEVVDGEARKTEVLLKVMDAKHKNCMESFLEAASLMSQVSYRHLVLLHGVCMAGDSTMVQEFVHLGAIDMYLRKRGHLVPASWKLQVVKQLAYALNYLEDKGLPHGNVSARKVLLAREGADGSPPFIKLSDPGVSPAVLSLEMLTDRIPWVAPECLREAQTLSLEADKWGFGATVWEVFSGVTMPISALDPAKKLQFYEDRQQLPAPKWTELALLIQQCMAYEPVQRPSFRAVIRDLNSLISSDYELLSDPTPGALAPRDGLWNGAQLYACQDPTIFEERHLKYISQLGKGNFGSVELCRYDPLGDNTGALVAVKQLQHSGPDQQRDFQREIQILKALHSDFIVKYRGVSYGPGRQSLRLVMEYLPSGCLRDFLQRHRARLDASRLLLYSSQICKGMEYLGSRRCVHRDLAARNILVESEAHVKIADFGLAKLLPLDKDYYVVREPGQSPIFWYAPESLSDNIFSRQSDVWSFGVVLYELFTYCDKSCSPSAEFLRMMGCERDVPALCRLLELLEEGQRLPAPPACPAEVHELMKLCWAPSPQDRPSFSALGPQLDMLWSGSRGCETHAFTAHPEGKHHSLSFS
Briefly: Inhibition of human JAK3.

In data set [9] the target is T3, Tyrosine-protein kinase JAK1 (Homo sapiens, UniProt P23458). Kind of data set: Inhibition of human JAK1.
T3 sequence (P23458 whole entry): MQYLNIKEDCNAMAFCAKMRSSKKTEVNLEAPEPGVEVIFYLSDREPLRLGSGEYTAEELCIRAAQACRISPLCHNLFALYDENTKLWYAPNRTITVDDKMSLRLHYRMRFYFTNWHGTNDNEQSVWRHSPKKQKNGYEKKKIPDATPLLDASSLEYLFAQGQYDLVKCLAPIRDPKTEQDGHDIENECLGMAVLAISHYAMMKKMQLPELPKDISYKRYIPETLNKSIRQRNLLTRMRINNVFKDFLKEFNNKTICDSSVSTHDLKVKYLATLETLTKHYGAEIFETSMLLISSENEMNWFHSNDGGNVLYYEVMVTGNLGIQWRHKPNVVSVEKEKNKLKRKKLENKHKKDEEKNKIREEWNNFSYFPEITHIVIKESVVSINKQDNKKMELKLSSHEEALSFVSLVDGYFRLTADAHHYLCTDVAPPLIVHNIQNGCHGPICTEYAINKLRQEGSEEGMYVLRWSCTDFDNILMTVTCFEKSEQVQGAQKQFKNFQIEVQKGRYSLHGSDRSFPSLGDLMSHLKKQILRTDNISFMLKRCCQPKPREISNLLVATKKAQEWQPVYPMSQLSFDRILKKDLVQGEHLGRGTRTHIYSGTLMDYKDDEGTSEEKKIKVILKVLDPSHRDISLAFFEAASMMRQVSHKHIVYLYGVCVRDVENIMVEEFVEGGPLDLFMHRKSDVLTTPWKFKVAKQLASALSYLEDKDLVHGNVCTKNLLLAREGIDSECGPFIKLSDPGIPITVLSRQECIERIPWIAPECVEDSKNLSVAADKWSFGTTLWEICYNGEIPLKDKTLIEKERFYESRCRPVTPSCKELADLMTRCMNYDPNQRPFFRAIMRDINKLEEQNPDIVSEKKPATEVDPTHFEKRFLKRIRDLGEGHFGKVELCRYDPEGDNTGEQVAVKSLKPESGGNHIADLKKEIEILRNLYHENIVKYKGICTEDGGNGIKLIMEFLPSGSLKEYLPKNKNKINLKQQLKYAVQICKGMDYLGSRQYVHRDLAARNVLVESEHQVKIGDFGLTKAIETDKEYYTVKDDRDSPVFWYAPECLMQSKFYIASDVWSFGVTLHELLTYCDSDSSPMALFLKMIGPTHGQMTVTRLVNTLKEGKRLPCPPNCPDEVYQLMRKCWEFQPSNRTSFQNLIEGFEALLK
The test system of data set [10] is U-937. Briefly: Induction of cell cycle arrest in human U-937 cells assessed as accumulation at G2/M phase at 300 nM measured after 24 hrs by propidium iodide staining based flow cytometric analysis (reference value: 21.41%). The format is functional.
For data set [11], the target named is Tyrosine-protein kinase TXK (Homo sapiens) (UniProt P42681). Briefly: Inhibition of TXK (unknown origin) at 0.5 uM relative to control.
In data set [12] the test system is U-937. Kind of data set: cells. The following applies: Homo sapiens, U-937, 72 h.
For data set [13], the target named is Tyrosine-protein kinase BTK (Homo sapiens) (UniProt Q06187). Briefly: Inhibition of BTK (unknown origin) at 0.5 uM relative to control.
Sequence of Tyrosine-protein kinase BTK (Homo sapiens) (Q06187 whole entry): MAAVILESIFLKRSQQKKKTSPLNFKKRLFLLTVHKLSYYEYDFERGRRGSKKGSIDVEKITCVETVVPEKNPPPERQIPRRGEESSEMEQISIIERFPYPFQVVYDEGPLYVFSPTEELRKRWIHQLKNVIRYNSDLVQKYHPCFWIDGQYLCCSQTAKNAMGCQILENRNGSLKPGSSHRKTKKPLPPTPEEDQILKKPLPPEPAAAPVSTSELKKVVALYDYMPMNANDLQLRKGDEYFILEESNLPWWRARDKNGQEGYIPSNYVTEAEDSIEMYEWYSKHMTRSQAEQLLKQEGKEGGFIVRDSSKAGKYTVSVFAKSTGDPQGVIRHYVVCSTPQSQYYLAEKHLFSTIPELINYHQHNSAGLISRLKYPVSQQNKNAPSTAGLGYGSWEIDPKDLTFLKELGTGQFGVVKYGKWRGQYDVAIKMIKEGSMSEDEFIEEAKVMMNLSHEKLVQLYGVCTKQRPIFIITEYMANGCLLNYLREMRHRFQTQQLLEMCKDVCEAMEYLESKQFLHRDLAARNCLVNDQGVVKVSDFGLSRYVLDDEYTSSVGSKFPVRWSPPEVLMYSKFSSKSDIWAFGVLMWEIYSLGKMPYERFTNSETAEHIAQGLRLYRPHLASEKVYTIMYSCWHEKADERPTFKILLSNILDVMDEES
Data set [14] has as its target T3, Tyrosine-protein kinase JAK1. Kind of data set: Inhibition of human JAK1 at 0.5 uM relative to control.
Data set [15] deals with U-937. Kind of data set: Antitumor activity against human U-937 cells xenografted in po dosed CB17-SCID mouse assessed as tumor growth inhibition twice daily for 10 days. The settings on record: time 10.0 day, DDE = dose-dependent effect. In kind it is functional, organism-based. A general note: Xenograft models place foreign cells or tissue in a host animal.
A further data set concerns BaF3. Briefly: cells. The settings on record: Mus musculus, BaF3, 72 h.
The target in data set [16] is Receptor tyrosine-protein kinase erbB-4 (Homo sapiens) (UniProt Q15303). Kind of data set: Inhibition of HER4 (unknown origin) at 0.5 uM relative to control.
Sequence of Receptor tyrosine-protein kinase erbB-4 (Homo sapiens) (Q15303 whole entry): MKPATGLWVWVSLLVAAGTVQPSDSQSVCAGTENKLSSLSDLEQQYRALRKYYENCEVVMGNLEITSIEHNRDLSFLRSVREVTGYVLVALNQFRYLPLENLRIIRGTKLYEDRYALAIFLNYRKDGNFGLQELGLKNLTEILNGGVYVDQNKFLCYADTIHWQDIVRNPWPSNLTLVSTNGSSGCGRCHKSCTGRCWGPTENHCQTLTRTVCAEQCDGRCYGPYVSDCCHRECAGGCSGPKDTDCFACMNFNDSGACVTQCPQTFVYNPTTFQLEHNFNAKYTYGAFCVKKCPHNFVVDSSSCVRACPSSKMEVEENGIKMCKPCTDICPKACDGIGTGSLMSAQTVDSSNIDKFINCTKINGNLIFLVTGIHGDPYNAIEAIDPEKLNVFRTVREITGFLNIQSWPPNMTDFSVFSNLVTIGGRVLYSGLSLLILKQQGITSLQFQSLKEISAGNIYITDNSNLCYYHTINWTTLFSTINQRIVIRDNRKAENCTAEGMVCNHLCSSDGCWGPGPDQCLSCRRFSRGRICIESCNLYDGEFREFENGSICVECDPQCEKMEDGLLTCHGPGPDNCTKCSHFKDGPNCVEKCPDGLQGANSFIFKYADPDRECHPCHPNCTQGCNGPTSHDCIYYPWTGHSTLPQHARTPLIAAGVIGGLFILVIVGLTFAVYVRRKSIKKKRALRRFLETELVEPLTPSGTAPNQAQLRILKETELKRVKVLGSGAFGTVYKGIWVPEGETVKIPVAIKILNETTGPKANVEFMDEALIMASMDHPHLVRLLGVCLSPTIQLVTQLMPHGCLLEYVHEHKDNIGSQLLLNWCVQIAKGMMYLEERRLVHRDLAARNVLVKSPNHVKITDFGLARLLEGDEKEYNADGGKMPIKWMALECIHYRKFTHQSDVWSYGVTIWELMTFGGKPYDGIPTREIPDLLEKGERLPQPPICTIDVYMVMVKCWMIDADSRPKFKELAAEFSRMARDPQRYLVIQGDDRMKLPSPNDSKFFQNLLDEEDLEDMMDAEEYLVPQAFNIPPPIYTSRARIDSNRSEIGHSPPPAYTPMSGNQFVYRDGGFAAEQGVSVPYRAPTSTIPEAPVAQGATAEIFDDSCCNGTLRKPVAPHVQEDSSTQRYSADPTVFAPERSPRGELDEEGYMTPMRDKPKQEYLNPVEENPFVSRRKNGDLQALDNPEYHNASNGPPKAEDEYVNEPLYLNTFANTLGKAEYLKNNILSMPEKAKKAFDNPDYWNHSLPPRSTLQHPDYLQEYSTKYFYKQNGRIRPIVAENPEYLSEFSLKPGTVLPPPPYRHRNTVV

Each structure is given as a SMILES string.

Sequence of Cyclin-Y/Cyclin-dependent kinase 16 (Q00536 whole entry): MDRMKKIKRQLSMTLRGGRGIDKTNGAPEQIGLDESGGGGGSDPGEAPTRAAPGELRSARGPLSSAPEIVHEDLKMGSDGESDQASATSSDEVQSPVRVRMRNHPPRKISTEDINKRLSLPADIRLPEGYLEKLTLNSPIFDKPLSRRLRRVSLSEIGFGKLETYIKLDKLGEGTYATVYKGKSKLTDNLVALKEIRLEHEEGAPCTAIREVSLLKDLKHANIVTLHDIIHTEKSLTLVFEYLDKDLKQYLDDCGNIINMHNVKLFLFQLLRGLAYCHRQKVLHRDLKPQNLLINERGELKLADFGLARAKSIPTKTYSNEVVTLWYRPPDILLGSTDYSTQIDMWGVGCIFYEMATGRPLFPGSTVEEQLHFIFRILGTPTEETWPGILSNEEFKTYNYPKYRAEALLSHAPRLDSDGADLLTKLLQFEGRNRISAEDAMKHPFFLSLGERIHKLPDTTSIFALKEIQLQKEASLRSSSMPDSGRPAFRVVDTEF
Sequence of Cyclin-Y/Cyclin-dependent kinase 16 (Q8ND76 whole entry, further chain): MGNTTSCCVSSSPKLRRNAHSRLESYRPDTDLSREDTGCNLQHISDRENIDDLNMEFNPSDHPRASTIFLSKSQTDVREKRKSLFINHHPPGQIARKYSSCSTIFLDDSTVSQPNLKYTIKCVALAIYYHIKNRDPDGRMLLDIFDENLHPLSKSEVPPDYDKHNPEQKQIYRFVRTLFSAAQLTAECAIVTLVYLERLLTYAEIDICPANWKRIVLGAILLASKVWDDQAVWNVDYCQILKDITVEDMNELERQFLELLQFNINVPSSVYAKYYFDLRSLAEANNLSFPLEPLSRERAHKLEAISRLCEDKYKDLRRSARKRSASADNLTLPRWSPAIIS
Sequence of Cytoplasmic tyrosine-protein kinase BMX (Homo sapiens) (P51813 whole entry): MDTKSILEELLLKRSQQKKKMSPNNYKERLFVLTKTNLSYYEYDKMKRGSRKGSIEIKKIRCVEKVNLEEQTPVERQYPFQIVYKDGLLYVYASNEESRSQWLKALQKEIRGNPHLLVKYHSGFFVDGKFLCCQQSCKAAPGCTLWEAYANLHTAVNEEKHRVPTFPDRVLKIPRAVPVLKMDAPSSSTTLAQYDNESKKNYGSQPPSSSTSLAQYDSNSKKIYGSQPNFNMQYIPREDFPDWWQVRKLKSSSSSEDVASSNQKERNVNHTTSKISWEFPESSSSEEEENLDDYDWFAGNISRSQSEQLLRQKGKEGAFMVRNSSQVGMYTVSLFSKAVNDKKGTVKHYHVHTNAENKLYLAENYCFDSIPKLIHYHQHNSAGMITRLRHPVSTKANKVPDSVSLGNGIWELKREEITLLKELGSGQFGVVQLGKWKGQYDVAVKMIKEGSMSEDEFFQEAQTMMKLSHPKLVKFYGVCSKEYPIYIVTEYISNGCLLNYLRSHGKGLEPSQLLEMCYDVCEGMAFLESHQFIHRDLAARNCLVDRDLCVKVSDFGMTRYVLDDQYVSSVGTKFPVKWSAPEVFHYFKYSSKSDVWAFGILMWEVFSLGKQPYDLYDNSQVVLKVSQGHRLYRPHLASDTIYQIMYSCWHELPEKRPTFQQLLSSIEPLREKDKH

By inhibition is commonly meant the change of the read-out against control, counted positive when it falls. In general, AUC(0-inf) refers to the area under the concentration-time curve extrapolated to infinity. A high value points to more exposure. Broadly, the IC50 is the concentration at which inhibition is half-maximal. A higher IC50 goes with weaker potency. For orientation: half-life means the time needed for the level to fall by half in the phase considered. Low values mean fast loss, high ones slow loss. Take `C=CC(=O)Nc1cc(Nc2ncc(Cl)c(O[C@@H]3CO[C@H]4[C@@H]3OC[C@H]4OC)n2)ccc1N(C)CCN(C)C`: the inhibition is 70% in [1]; “Tde” in data set [5]; 40% in data set [7]; 103% in [11]; 114% in [13]; 84% in [14]. Further, the inhibition in data set [16] came to 106%. The Activity in the data set with U-937 [2] is 21.98%; in the data set with U-937 [10], 15.33%; in the data set with U-937 [15], “Dde”. Further, the AUC(0-inf) in [3] stood at 537 ng·h/mL. The IC50 worked out at 135 nM in [4]; 8 nM in [8]; 4730 nM in data set [9]; 20.2 nM in the data set on U-937 [12]; 22.9 nM in the data set on BaF3. For the same compound, the half-life in data set [6] is 54.6 min.
